Here are results for 13 compounds from ChEMBL document CHEMBL3593229, “Identification of a potent 5-phenyl-thiazol-2-ylamine-based inhibitor of FLT3 with activity against drug resistance-conferring point mutations” (Eur J Med Chem, 2015).

Each structure is given as a SMILES string. Where only a bound is given, the exact number is not on record here.

The target in series [1] is T1, Receptor-type tyrosine-protein kinase FLT3 (Homo sapiens, UniProt P36888).
T1 sequence (P36888 whole entry): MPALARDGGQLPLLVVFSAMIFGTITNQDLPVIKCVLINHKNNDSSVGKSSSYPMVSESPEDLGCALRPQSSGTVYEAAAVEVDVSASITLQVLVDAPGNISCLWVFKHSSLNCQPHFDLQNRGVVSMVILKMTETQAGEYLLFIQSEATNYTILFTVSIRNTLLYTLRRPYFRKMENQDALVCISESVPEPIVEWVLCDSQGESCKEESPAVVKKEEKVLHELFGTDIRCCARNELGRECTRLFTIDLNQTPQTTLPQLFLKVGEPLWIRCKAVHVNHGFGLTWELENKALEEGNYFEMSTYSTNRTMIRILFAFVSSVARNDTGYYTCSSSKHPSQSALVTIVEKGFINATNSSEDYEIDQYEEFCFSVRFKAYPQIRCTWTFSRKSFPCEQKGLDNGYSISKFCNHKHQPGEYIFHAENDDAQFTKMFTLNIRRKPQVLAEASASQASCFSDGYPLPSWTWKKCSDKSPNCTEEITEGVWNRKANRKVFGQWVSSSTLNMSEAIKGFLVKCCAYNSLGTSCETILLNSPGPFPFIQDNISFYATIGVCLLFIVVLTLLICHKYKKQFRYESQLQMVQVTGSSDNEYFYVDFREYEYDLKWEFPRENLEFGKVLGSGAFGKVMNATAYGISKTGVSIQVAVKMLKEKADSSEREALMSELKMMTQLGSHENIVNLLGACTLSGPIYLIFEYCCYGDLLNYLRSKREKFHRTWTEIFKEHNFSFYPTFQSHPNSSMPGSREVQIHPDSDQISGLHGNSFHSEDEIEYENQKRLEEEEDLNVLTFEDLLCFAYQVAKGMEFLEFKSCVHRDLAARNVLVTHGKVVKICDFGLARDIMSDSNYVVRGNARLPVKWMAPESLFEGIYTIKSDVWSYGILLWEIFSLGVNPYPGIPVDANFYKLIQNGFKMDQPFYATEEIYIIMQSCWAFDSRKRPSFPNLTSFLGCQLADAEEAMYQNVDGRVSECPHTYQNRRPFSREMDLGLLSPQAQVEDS
The series can be described thus: biochemical. Type of series: cell-based, Sf9.
Description: Inhibition of wild type GST-tagged FLT3 kinase domain (Y567 to S993) (unknown origin) expressed in baculovirus infected insect Sf9 cells using Her2 peptide as substrate after 4 hrs by Kinase-Glo assay

The target in series [2] is Vascular endothelial growth factor receptor 2 (Homo sapiens, UniProt P35968). Briefly: biochemical. Type of series: cell-based, Sf9.
Description: Inhibition of recombinant GST-tagged VEGFR2 kinase domain (V789 to V1356) (unknown origin) expressed in insect Sf9 cells using polyGlu4:Tyr peptide as substrate after 120 mins by Kinase-Glo assay
In series [3] the test system is Receptor-type tyrosine-protein kinase FLT3 (Homo sapiens), P36888 [UNDEFINED MUTATION]. Conditions: MOLM-13.
Description: Inhibition of FLT3 ITD heterozygous mutant in human MOLM-13 cells assessed as cell growth inhibition after 72 hrs by MTS assay
In a further series the target is T2, Aurora kinase A (Homo sapiens, UniProt O14965).
T2 sequence (O14965 whole entry): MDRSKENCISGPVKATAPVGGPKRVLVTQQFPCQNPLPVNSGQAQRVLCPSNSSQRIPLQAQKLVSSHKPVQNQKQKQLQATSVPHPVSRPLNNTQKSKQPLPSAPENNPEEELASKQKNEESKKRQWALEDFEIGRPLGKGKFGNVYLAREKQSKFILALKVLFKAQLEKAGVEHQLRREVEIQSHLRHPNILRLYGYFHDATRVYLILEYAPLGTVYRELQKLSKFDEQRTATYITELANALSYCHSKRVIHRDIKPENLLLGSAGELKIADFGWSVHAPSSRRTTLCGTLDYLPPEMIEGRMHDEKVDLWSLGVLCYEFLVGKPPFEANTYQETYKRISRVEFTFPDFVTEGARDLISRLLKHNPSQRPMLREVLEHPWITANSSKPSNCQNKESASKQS
Briefly: biochemical.

The nature of series [4]: AUC (0 to infinity) in Sprague-Dawley rat at 10 mg/kg, po. Conditions: in vivo. Type of series: ADME, organism-based. Also on record: dose 10 mg/kg, time infinity, route oral.
Series [5] is described as follows: Oral bioavailability in Sprague-Dawley rat at 10 mg/kg. Type of series: ADME, organism-based. Conditions: in vivo.

Sequence of Vascular endothelial growth factor receptor 2 (P35968 whole entry): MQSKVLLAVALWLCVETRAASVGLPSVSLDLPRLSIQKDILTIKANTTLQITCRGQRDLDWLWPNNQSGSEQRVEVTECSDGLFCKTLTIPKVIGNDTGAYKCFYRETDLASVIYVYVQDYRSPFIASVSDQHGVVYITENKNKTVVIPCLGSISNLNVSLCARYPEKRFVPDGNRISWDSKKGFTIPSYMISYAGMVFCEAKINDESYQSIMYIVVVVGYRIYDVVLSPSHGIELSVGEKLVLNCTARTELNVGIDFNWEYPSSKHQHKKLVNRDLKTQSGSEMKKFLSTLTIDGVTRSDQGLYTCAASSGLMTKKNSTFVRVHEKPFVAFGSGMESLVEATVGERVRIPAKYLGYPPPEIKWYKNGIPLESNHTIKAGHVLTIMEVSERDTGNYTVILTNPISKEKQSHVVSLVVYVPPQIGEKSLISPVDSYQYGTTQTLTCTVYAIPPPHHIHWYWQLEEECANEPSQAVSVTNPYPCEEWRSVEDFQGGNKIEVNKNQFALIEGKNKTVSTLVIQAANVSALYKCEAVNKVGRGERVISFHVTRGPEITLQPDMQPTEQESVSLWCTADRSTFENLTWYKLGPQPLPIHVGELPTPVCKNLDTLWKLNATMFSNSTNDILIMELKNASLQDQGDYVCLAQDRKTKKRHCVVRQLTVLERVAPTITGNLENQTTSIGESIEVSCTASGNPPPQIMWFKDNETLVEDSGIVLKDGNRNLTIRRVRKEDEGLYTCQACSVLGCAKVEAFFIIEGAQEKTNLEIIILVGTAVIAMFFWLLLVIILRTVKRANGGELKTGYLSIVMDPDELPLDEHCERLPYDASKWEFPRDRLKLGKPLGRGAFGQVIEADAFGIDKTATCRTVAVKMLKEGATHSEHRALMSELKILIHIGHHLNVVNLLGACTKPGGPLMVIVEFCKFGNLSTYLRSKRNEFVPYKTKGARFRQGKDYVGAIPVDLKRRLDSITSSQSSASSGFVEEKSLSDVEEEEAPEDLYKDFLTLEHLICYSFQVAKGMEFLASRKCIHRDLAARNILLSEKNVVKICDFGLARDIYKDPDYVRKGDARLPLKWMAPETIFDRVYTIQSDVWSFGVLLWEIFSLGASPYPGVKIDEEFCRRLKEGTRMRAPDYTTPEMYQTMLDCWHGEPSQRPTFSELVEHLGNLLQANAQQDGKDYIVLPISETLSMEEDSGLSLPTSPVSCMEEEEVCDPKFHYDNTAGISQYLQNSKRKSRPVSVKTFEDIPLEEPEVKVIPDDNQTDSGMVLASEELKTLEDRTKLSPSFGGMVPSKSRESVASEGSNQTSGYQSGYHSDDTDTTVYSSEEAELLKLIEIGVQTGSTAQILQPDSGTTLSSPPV
Description for Aurora kinase A: Inhibition of recombinant GST-tagged Aurora-A kinase domain (S123 to S401) (unknown origin) expressed in insect Sf9 cells using tetra(LRRASLG) peptide as substrate after 90 mins by Kinase-Glo assay

For `CCCCc1cc(NC(=O)Nc2ccc(-c3cnc(Nc4cc(N5CCN(C)CC5)nc(C)n4)s3)cc2)no1`, the IC50 (usually the concentration that gives 50% inhibition) in series [1] was determined as 22 nM; in series [2], 55 nM; on Aurora kinase A, 38 nM. Moreover, halving of growth in series [3] (GI50) required 14 nM.
For `Cc1nc(Nc2ncc(-c3ccc(NC(=O)Nc4ccccc4)cc3)s2)cc(N2CCC(N)CC2)n1`, in that order: 73 nM, 53 nM, 150 nM and 16 nM.
The corresponding values for `CCN1CCN(c2cc(Nc3ncc(-c4ccc(NC(=O)c5ccccc5)cc4)s3)nc(C)n2)CC1` are 850 nM, more than 1000 nM, 140 nM and 19 nM.
Take `Cc1nc(Nc2ncc(-c3ccc(NC(=O)Nc4cccc(Cl)c4)cc3)s2)cc(N2CCNCC2)n1`: the IC50 was 20 nM in series [1], 31 nM in series [2] and 270 nM on Aurora kinase A. Growth in series [3] was halved (GI50) at 24 nM.
Turning to `Cc1cc(NC(=O)Nc2ccc(-c3cnc(NC(=O)c4ccc(OCCN5CCOCC5)cc4)s3)cc2)no1`, the IC50 in series [1] was 580 nM; in series [2], 370 nM; on Aurora kinase A, 25 nM. Moreover, growth in series [3] was halved (GI50) at 210 nM.
Regarding `CCc1cc(NC(=O)Nc2ccc(-c3cnc(Nc4cc(N5CCN(C)CC5)nc(C)n4)s3)cc2)no1`, the IC50 in series [1] turned out to be 49 nM; in series [2], 10 nM; on Aurora kinase A, 41 nM. For the same compound, the AUC(0-inf) (usually total exposure, with the tail of the curve extrapolated) in series [4] worked out at 632 ng·h/mL. In series [5], the bioavailability (in general, the share of a dose that reaches the circulation, judged against a reference dose that is usually intravenous) is 18%. The GI50 (in general, the concentration that inhibits growth by half) in series [3] was 3 nM.
Consider `CCN1CCN(c2cc(Nc3ncc(-c4ccc(NS(=O)(=O)c5ccccc5)cc4)s3)nc(C)n2)CC1`, for which the half-maximal inhibitory concentration (IC50) turned out to be 520 nM in series [1], 170 nM in series [2] and 43 nM on Aurora kinase A. This compound gave a GI50 in series [3] of 140 nM.
Turning to `Cc1nc(Nc2ncc(-c3ccc(NC(=O)Nc4cc(C)on4)cc3)s2)cc(N2CCN(C)CC2)n1`, the results for the IC50 (in series [1]; in series [2]; against Aurora kinase A) were 10 nM, 15 nM and 56 nM, respectively. The compound also had an AUC(0-inf) in series [4] of 313 ng·h/mL. The compound further registered a bioavailability in series [5] of 10%. The GI50 in series [3] is 1 nM.
Consider `CCN1CCN(c2cc(Nc3ncc(-c4ccc(NC(=O)Nc5ccc(Cl)cc5)cc4)s3)nc(C)n2)CC1`, for which the IC50 in series [1] is 320 nM; in series [2], 43 nM; on Aurora kinase A, 95 nM. For the same compound, in series [3], the GI50 worked out at 9 nM.
For `CCN1CCN(c2cc(Nc3ncc(-c4ccc(NC(=O)Nc5cc(C6CC6)on5)cc4)s3)nc(C)n2)CC1`, in that order: 33 nM, 15 nM, 36 nM and 2 nM.
Consider `Cc1nc(Nc2ncc(-c3ccc(NC(=O)Nc4ccccc4)cc3)s2)cc(N2CCN(C)CC2)n1`, for which the IC50 in series [1] is 79 nM; in series [2], 160 nM; at Aurora kinase A it was more than 10000 nM. Moreover, in series [3], the GI50 was determined as 24 nM.
`CCc1cc(NC(=O)Nc2ccc(-c3cnc(Nc4cc(N5CCC(N)C5)nc(C)n4)s3)cc2)no1` (centres undefined): in series [3], the GI50 amounted to 3 nM.
On to `CCN1CCN(c2cc(Nc3ncc(-c4ccc(NC(=O)OCc5ccccc5)cc4)s3)nc(C)n2)CC1`, for which the IC50 in series [1] is 83 nM; in series [2], 120 nM; at Aurora kinase A it was 320 nM. In addition, the AUC(0-inf) in series [4] was determined as 66 ng·h/mL. Besides, growth in series [3] was halved (GI50) at 3 nM.
